Data as given in paper PMC8691750, “Euphorbia Factor L2 ameliorates the Progression of K/BxN Serum-Induced Arthritis by Blocking TLR7 Mediated IRAK4/IKKβ/IRF5 and NF-kB Signaling Pathways” (Frontiers in Pharmacology, 2021).
Several values for one entry are separate records, joined by “and”; a condition that tells them apart may be missing. Equal values may be shown once.

Test system: TLR signalling pathway genes
Assay: Toll-like Receptor Pathway PCR array of ankles
Assay type: in vivo, C57BL/6 mice
Settings: for S40/SIA (fold change) / log2(fold change) S40/SIA: S40 group vs SIA group
Method: Total RNA was isolated from the right ankles using the TRIzol Reagent (Invitrogen) and purified with RNeasy Mini Kit and RNase-Free DNase Set (Qiagen). RNA quality was determined using a spectrophotometer and was reversely transcribed using Wcgene® mRNA cDNA kit. The complementary DNA was used on the Toll-like Receptor Pathway PCR Array plate (Wcgene® biotech, China).

SMILES: C=C1C(OC(=O)c2ccccc2)CC2C(C=C(C)C(=O)C3(OC(C)=O)CC(C)C(OC(=O)c4ccccc4)C3C1OC(C)=O)C2(C)C (stereo not shown) [EFL2, Euphorbia factor L2]
- fold-GAPDH, ACTB (ACTB mRNA relative to GAPDH (内参-GAPDH), individual mice of EFL2 group (S401, S402, S404, S405 = EFL2-1 to -4)): 1.058 and 1.072 and 0.8044
- fold-GAPDH, B2M (B2M mRNA relative to GAPDH, individual mice of EFL2 group (S401, S402, S404, S405)): 0.312 and 0.4388 and 0.3402 and 0.1942
- fold-GAPDH, Becn1 (Becn1 mRNA relative to GAPDH, individual mice of EFL2 group (S401, S402, S404, S405)): 0.001891 and 0.007192 and 0.004096
- S40/SIA (fold change) (Becn1 mRNA): 0.2727
- log2(fold change) S40/SIA (Becn1 mRNA): -1.875
- fold-GAPDH, Btk (Btk mRNA relative to GAPDH, individual mice of EFL2 group (S401, S402, S404, S405)): 0.002403 and 0.001831 and 0.004678 and 0.001063
- S40/SIA (fold change) (Btk mRNA): 0.3155
- log2(fold change) S40/SIA (Btk mRNA): -1.664
- fold-GAPDH, Casp8 (Casp8 mRNA relative to GAPDH, individual mice of EFL2 group (S401, S402, S404, S405)): 0.01634 and 0.01358 and 0.009475
- S40/SIA (fold change) (Casp8 mRNA): 0.2393
- log2(fold change) S40/SIA (Casp8 mRNA): -2.063
- fold-GAPDH, Ccl2 (Ccl2 mRNA relative to GAPDH, individual mice of EFL2 group (S401, S402, S404, S405)): 0.01529 and 0.00629 and 0.0002036
- S40/SIA (fold change) (Ccl2 mRNA): 0.0326
- log2(fold change) S40/SIA (Ccl2 mRNA): -4.939
- fold-GAPDH, Ccl11 (Ccl11 mRNA relative to GAPDH, individual mice of EFL2 group (S401, S402, S404, S405)): 0.01036 and 0.008836 and 0.01327 and 0.005579
- S40/SIA (fold change) (Ccl11 mRNA): 1.864
- log2(fold change) S40/SIA (Ccl11 mRNA): 0.8985
- fold-GAPDH, Ccl20 (Ccl20 mRNA relative to GAPDH, individual mice of EFL2 group (S401, S402, S404, S405)): 3.719e-5 and 0.0001299
- fold-GAPDH, Cd14 (Cd14 mRNA relative to GAPDH, individual mice of EFL2 group (S401, S402, S404, S405)): 0.005751 and 0.00806 and 0.003038 and 0.001749
- fold-GAPDH, Cd80 (Cd80 mRNA relative to GAPDH, individual mice of EFL2 group (S401, S402, S404, S405)): 0.002341 and 0.005041 and 0.0008698
- fold-GAPDH, Cd86 (Cd86 mRNA relative to GAPDH, individual mice of EFL2 group (S401, S402, S404, S405)): 0.0007215 and 0.0005777 and 0.0007714 and 0.0003428
- S40/SIA (fold change) (Cd86 mRNA): 0.1925
- log2(fold change) S40/SIA (Cd86 mRNA): -2.3771
- fold-GAPDH, Chuk (Chuk mRNA relative to GAPDH, individual mice of EFL2 group (S401, S402, S404, S405)): 0.008767 and 0.01087 and 0.008829
- S40/SIA (fold change) (Chuk mRNA): 0.3313
- log2(fold change) S40/SIA (Chuk mRNA): -1.594
- fold-GAPDH, Clec4e (Clec4e mRNA relative to GAPDH, individual mice of EFL2 group (S401, S402, S404, S405)): 0.0002637 and 0.002249 and 0.0004993 and 4.1493e-5
- S40/SIA (fold change) (Clec4e mRNA): 0.0859
- log2(fold change) S40/SIA (Clec4e mRNA): -3.541
- fold-GAPDH, Cxcl10 (Cxcl10 mRNA relative to GAPDH, individual mice of EFL2 group (S401, S402, S404, S405)): 2.1064e-5
- S40/SIA (fold change) (Cxcl10 mRNA): 0.002337
- log2(fold change) S40/SIA (Cxcl10 mRNA): -8.741
- fold-GAPDH, Eif2ak2 (Eif2ak2 mRNA relative to GAPDH, individual mice of EFL2 group (S401, S402, S404, S405)): 0.004437 and 0.00565 and 0.003196
- fold-GAPDH, Elk1 (Elk1 mRNA relative to GAPDH, individual mice of EFL2 group (S401, S402, S404, S405)): 0.006009 and 0.005652 and 0.006734 and 0.002589
- S40/SIA (fold change) (Elk1 mRNA): 0.3565
- log2(fold change) S40/SIA (Elk1 mRNA): -1.488
- fold-GAPDH, Fadd (Fadd mRNA relative to GAPDH, individual mice of EFL2 group (S401, S402, S404, S405)): 0.001977 and 0.0009207 and 0.00158 and 0.0009332
- S40/SIA (fold change) (Fadd mRNA): 0.1995
- log2(fold change) S40/SIA (Fadd mRNA): -2.325
- fold-GAPDH, Fos (Fos mRNA relative to GAPDH, individual mice of EFL2 group (S401, S402, S404, S405)): 0.02349 and 0.0137 and 0.0143 and 0.009915
- fold-GAPDH, HPRT1 (HPRT1 mRNA relative to GAPDH, individual mice of EFL2 group (S401, S402, S404, S405)): 0.01241 and 0.008273 and 0.01631
- fold-GAPDH, Hmgb1 (Hmgb1 mRNA relative to GAPDH, individual mice of EFL2 group (S401, S402, S404, S405)): 0.3089 and 0.3274 and 0.2681 and 0.1726
- fold-GAPDH, Hras1 (Hras1 mRNA relative to GAPDH, individual mice of EFL2 group (S401, S402, S404, S405)): 0.02419 and 0.02746 and 0.02268 and 0.01475
- S40/SIA (fold change) (Hras1 mRNA): 0.4915
- log2(fold change) S40/SIA (Hras1 mRNA): -1.025
- fold-GAPDH, Hspa1a (Hspa1a mRNA relative to GAPDH, individual mice of EFL2 group (S401, S402, S404, S405)): 0.03203 and 0.003543 and 0.006228
- fold-GAPDH, Hspd1 (Hspd1 mRNA relative to GAPDH, individual mice of EFL2 group (S401, S402, S404, S405)): 0.02796 and 0.02518 and 0.003019 and 0.01313
- S40/SIA (fold change) (Hspd1 mRNA): 0.2339
- log2(fold change) S40/SIA (Hspd1 mRNA): -2.096
- fold-GAPDH, IRF5 (IRF5 mRNA in ankles of STA mice, relative to GAPDH, one value per animal (samples S401-S405)): 0.004631 and 0.004692 and 0.004033 and 0.001353
- S40/SIA (fold change) (IRF5 mRNA): 0.3677
- log2(fold change) S40/SIA (IRF5 mRNA): -1.443
- fold-GAPDH, Ikbkb (Ikbkb mRNA relative to GAPDH, individual mice of EFL2 group (S401, S402, S404, S405)): 0.009029 and 0.01266 and 0.01025 and 0.004561
- fold-GAPDH, Il1a (Il1a mRNA relative to GAPDH, individual mice of EFL2 group (S401, S402, S404, S405)): 0.0002392 and 0.0002831 and 9.48e-5
- fold-GAPDH, Il1b (Il1b mRNA relative to GAPDH, individual mice of EFL2 group (S401, S402, S404, S405)): 0.005996 and 0.0009616 and 0.0008 and 0.0006699
- S40/SIA (fold change) (Il1b mRNA): 0.0229
- log2(fold change) S40/SIA (Il1b mRNA): -5.448
- fold-GAPDH, Il6 (Il6 mRNA relative to GAPDH, individual mice of EFL2 group (S401, S402, S404, S405)): 0.002971 and 0.0008677 and 0.0003997 and 0.0006556
- S40/SIA (fold change) (Il6 mRNA): 0.03478
- log2(fold change) S40/SIA (Il6 mRNA): -4.845
- fold-GAPDH, Il6ra (Il6ra mRNA in ankles of STA mice, relative to GAPDH, one value per animal (samples S401-S405)): 0.009397 and 0.01121 and 0.004741
- fold-GAPDH, Il10 (Il10 mRNA relative to GAPDH, individual mice of EFL2 group (S401, S402, S404, S405)): 0.0001425 and 0.0002257 and 7.048e-5 and 9.932e-5
- S40/SIA (fold change) (Il10 mRNA): 0.2443
- log2(fold change) S40/SIA (Il10 mRNA): -2.033
- fold-GAPDH, Il12a (Il12a mRNA relative to GAPDH, individual mice of EFL2 group (S401, S402, S404, S405)): 0.001377 and 0.0005874 and 0.0009712 and 0.0002213
- fold-GAPDH, Ilr1 (Ilr1 mRNA in ankles of STA mice, relative to GAPDH, one value per animal (samples S401-S405)): 0.01383 and 0.01561 and 0.01023 and 0.00774
- S40/SIA (fold change) (Ilr1 mRNA): 0.09556
- log2(fold change) S40/SIA (Ilr1 mRNA): -3.388
- fold-GAPDH, Irak1 (Irak1 mRNA in ankles of STA mice, relative to GAPDH, one value per animal (samples S401-S405)): 0.02263 and 0.02515 and 0.01545 and 0.008286
- fold-GAPDH, Irak2 (Irak2 mRNA in ankles of STA mice, relative to GAPDH, one value per animal (samples S401-S405)): 0.003024 and 0.004831 and 0.004355 and 0.002516
